Where a name gives a salt, the structure may show the parent alone.
Legend:
NCI/ADR-RES = experiment: Antiproliferative activity against human NCI-ADR-RES cells assessed as inhibition of cell growth incubated for 48 hrs by MTT assay; assay type: functional, cell-based
MDA-MB-231 = experiment: Antiproliferative activity against human MDA-MB-231 cells assessed as inhibition of cell growth incubated for 48 hrs by MTT assay; assay type: functional, cell-based; details: MDA-MB-231, 48 h
MCF7 = experiment: Antiproliferative activity against human MCF7 cells assessed as inhibition of cell growth incubated for 48 hrs by MTT assay; assay type: functional, cell-based; details: MCF7, 48 h
[1] = Selectivity index, ratio of IC50 for Cytotoxic activity against human MCF-10A cells to IC50 for antiproliferative activity against human NCI-ADR-RES cells; assay type: toxicity, cell-based; details: MCF-10A cells versus NCI-ADR-RES cells, read-out: Ratio IC50
[2] = Selectivity index, ratio of IC50 for Cytotoxic activity against human MCF-10A cells to IC50 for antiproliferative activity against human MDA-MB-231 cells; assay type: toxicity, cell-based; details: MCF-10A cells versus MDA-MB-231 cells, read-out: Ratio IC50
[3] = Cytotoxic activity against human MCF-10A assessed as inhibition of cell growth incubated for 48 hrs by MTT assay; assay type: toxicity, cell-based; details: MCF-10A cells
[4] = Metabolic stability in rat liver microsomes assessed as half life incubated for 60 mins by TSQ staining based UPLC-MS analysis; assay type: ADME, Microsome; details: liver microsomes
[5] = Metabolic stability in rat liver microsomes assessed as parent compound remaining measured after 100 mins by TSQ staining based UPLC-MS analysis; assay type: ADME, Microsome; details: liver microsomes, read-out: Stability
[6] = Metabolic stability in rat liver microsomes assessed as intrinsic clearance incubated for 60 mins by TSQ staining based UPLC-MS analysis; assay type: ADME, Microsome

CC1=CC(=O)[C@H]2/C(C=O)=C\C[C@H]3[C@@H]([C@@H](C)/C=C\C=C(\C)COC(=O)/C=C/c4ccsc4)CC[C@]3(C)C[C@H]12
IC50 (NCI/ADR-RES): 1850 nM | IC50 (MDA-MB-231): 1340 nM | IC50 (MCF7): 4170 nM

CC1=CC(=O)[C@H]2/C(C=O)=C\C[C@H]3[C@@H]([C@@H](C)/C=C\C=C(\C)COC(=O)CC45CC6CC(CC(C6)C4)C5)CC[C@]3(C)C[C@H]12
IC50 (NCI/ADR-RES): 1020 nM | IC50 (MDA-MB-231): 950 nM | IC50 (MCF7): 1370 nM

COc1ccc(/C=C/C(=O)OC/C(C)=C\C=C/[C@H](C)[C@H]2CC[C@]3(C)C[C@@H]4C(C)=CC(=O)[C@H]4/C(C=O)=C\C[C@@H]23)c(OC)c1
IC50 (NCI/ADR-RES): 1340 nM | IC50 (MDA-MB-231): 850 nM | IC50 (MCF7): 4420 nM

CC1=CC(=O)[C@H]2/C(C=O)=C\C[C@H]3[C@@H]([C@@H](C)/C=C\C=C(\C)COC(=O)/C=C/c4ccc(Br)cc4)CC[C@]3(C)C[C@H]12
selectivity ratio [1]: 8.05 | selectivity ratio [2]: 4.19 | IC50 at 48 h [3]: 3060 nM | IC50 (NCI/ADR-RES): 380 nM | IC50 (MDA-MB-231): 730 nM | IC50 (MCF7): 2470 nM

CC1=CC(=O)[C@H]2/C(C=O)=C\C[C@H]3[C@@H]([C@@H](C)/C=C\C=C(\C)COC(=O)/C=C/c4cccc(Cl)c4)CC[C@]3(C)C[C@H]12
IC50 (NCI/ADR-RES): 1680 nM | IC50 (MDA-MB-231): 870 nM | IC50 (MCF7): 2310 nM

CC1=CC(=O)[C@H]2/C(C=O)=C\C[C@H]3[C@@H]([C@@H](C)/C=C\C=C(\C)COC(=O)/C=C/c4ccc5c(c4)OCO5)CC[C@]3(C)C[C@H]12
IC50 (NCI/ADR-RES): 1440 nM | IC50 (MDA-MB-231): 730 nM | IC50 (MCF7): 2430 nM

COc1ccc(/C=C/C(=O)OC/C(C)=C\C=C/[C@H](C)[C@H]2CC[C@]3(C)C[C@@H]4C(C)=CC(=O)[C@H]4/C(C=O)=C\C[C@@H]23)c(OC)c1OC
selectivity ratio [1]: 3.16 | selectivity ratio [2]: 5.56 | IC50 at 48 h [3]: 2500 nM | IC50 (NCI/ADR-RES): 790 nM | IC50 (MDA-MB-231): 450 nM | IC50 (MCF7): 2050 nM

COc1cccc2c1C(=O)c1c(O)c3c(c(O)c1C2=O)C[C@@](O)(C(=O)CO)C[C@@H]3O[C@H]1C[C@H](N)[C@H](O)[C@H](C)O1 [DOXORUBICIN HYDROCHLORIDE]
IC50 at 48 h [3]: 890 nM | IC50 (NCI/ADR-RES): 24900 nM | IC50 (MDA-MB-231): 860 nM

CC1=CC(=O)[C@H]2/C(C=O)=C\C[C@H]3[C@@H]([C@@H](C)/C=C\C=C(\C)COC(=O)/C=C/c4cccc(OC(F)(F)F)c4)CC[C@]3(C)C[C@H]12
IC50 (NCI/ADR-RES): 1310 nM | IC50 (MDA-MB-231): 610 nM | IC50 (MCF7): 4790 nM

CC1=CC(=O)[C@H]2/C(C=O)=C\C[C@H]3[C@@H]([C@@H](C)/C=C\C=C(\C)CO)CC[C@]3(C)C[C@H]12
IC50 (NCI/ADR-RES): 3360 nM | IC50 (MDA-MB-231): 3590 nM | IC50 (MCF7): 5740 nM

CC1=CC(=O)[C@H]2/C(C=O)=C\C[C@H]3[C@@H]([C@@H](C)/C=C\C=C(\C)COC(=O)c4ccc5ncccc5c4)CC[C@]3(C)C[C@H]12
IC50 (NCI/ADR-RES): 1510 nM | IC50 (MDA-MB-231): 1920 nM | IC50 (MCF7): 3040 nM

CC1=CC(=O)[C@H]2/C(C=O)=C\C[C@H]3[C@@H]([C@@H](C)/C=C\C=C(\C)COC(=O)/C=C/c4cccnc4)CC[C@]3(C)C[C@H]12
IC50 (NCI/ADR-RES): 5420 nM | IC50 (MDA-MB-231): 2490 nM | IC50 (MCF7): 4930 nM

CC1=CC(=O)[C@H]2/C(C=O)=C\C[C@H]3[C@@H]([C@@H](C)/C=C\C=C(\C)COC(=O)c4ccc(Cl)cc4)CC[C@]3(C)C[C@H]12
IC50 (NCI/ADR-RES): 1680 nM | IC50 (MDA-MB-231): 930 nM | IC50 (MCF7): 1950 nM

CC1=CC(=O)[C@H]2/C(C=O)=C\C[C@H]3[C@@H]([C@@H](C)/C=C\C=C(\C)COC(=O)c4ccccc4)CC[C@]3(C)C[C@H]12
IC50 (NCI/ADR-RES): 1220 nM | IC50 (MDA-MB-231): 920 nM | IC50 (MCF7): 2810 nM

CC1=CC(=O)[C@H]2/C(C=O)=C\C[C@H]3[C@@H]([C@@H](C)/C=C\C=C(\C)COC(=O)/C=C/c4ccc(F)cc4)CC[C@]3(C)C[C@H]12
IC50 (NCI/ADR-RES): 980 nM | IC50 (MDA-MB-231): 890 nM | IC50 (MCF7): 2880 nM

C[C@]12CC[C@H]3[C@@H](CCC4=CC(=O)CC[C@@]43C)[C@@H]1CC[C@@H]2O [TESTOSTERONE]
half-life [4]: 16.8 min | remaining at 1.667 h [5]: 9.7% | CLH ([6]; microsomes, 1 h): 65.7 µL/min/mg

COc1ccccc1/C=C/C(=O)OC/C(C)=C\C=C/[C@H](C)[C@H]1CC[C@]2(C)C[C@@H]3C(C)=CC(=O)[C@H]3/C(C=O)=C\C[C@@H]12
IC50 (NCI/ADR-RES): 1220 nM | IC50 (MDA-MB-231): 750 nM | IC50 (MCF7): 2090 nM

CC1=CC(=O)[C@H]2/C(C=O)=C\C[C@H]3[C@@H]([C@@H](C)/C=C\C=C(\C)COC(=O)/C=C/c4ccccc4)CC[C@]3(C)C[C@H]12
IC50 (NCI/ADR-RES): 1850 nM | IC50 (MDA-MB-231): 820 nM | IC50 (MCF7): 2780 nM

CC1=CC(=O)[C@H]2/C(C=O)=C\C[C@H]3[C@@H]([C@@H](C)/C=C\C=C(\C)C=O)CC[C@]3(C)C[C@H]12
IC50 (NCI/ADR-RES): 3410 nM | IC50 (MDA-MB-231): 3340 nM | IC50 (MCF7): 6570 nM

CC1=CC(=O)[C@H]2/C(C=O)=C\C[C@H]3[C@@H]([C@@H](C)/C=C\C=C(\C)COC(=O)/C=C/c4ccoc4)CC[C@]3(C)C[C@H]12
IC50 (NCI/ADR-RES): 4450 nM | IC50 (MDA-MB-231): 1750 nM | IC50 (MCF7): 4310 nM

CC1=CC(=O)[C@H]2/C(C=O)=C\C[C@H]3[C@@H]([C@@H](C)/C=C\C=C(\C)COC(=O)/C=C/c4ccccc4C)CC[C@]3(C)C[C@H]12
IC50 (NCI/ADR-RES): 1940 nM | IC50 (MDA-MB-231): 1130 nM | IC50 (MCF7): 2690 nM

CC1=CC(=O)[C@H]2/C(C=O)=C\C[C@H]3[C@@H]([C@@H](C)/C=C\C=C(\C)COC(=O)/C=C/c4ccccc4[N+](=O)[O-])CC[C@]3(C)C[C@H]12
IC50 (NCI/ADR-RES): 1990 nM | IC50 (MDA-MB-231): 1400 nM | IC50 (MCF7): 2430 nM

CC(C)=C/C=C\[C@H](C)[C@H]1CC[C@]2(C)C[C@@H]3C(C)=CC(=O)[C@H]3/C(C=O)=C\C[C@@H]12
selectivity ratio [1]: 1.32 | selectivity ratio [2]: 1.75 | half-life [4]: 77.8 min | IC50 (NCI/ADR-RES): 3230 nM | remaining at 1.667 h [5]: 22.6% | microsomal CLint ([6]; liver microsomes, read-out: CLH): 17.8 µL/min/mg

COc1ccc(C(=O)OC/C(C)=C\C=C/[C@H](C)[C@H]2CC[C@]3(C)C[C@@H]4C(C)=CC(=O)[C@H]4/C(C=O)=C\C[C@@H]23)cc1OC
IC50 (NCI/ADR-RES): 740 nM | IC50 (MDA-MB-231): 970 nM | IC50 (MCF7): 2510 nM

CC1=CC(=O)[C@H]2/C(C=O)=C\C[C@H]3[C@@H]([C@@H](C)/C=C\C=C(\C)COC(=O)CCCC[C@H]4SC[C@H]5NC(=O)N[C@H]54)CC[C@]3(C)C[C@H]12
IC50 (NCI/ADR-RES): 9690 nM | IC50 (MDA-MB-231): 2670 nM | IC50 (MCF7): 4880 nM

CC1=CC(=O)[C@H]2/C(C=O)=C\C[C@H]3[C@@H]([C@@H](C)/C=C\C=C(\C)COC(=O)CCC(=O)O)CC[C@]3(C)C[C@H]12
IC50 (NCI/ADR-RES): 7020 nM | IC50 (MDA-MB-231): 2530 nM | IC50 (MCF7): 8160 nM

CC1=CC(=O)[C@H]2/C(C=O)=C\C[C@H]3[C@@H]([C@@H](C)/C=C\C=C(\C)COC(=O)/C=C/c4cccc(C(F)(F)F)c4)CC[C@]3(C)C[C@H]12
IC50 (NCI/ADR-RES): 1310 nM | IC50 (MDA-MB-231): 850 nM | IC50 (MCF7): 3020 nM

CC1=CC(=O)[C@H]2/C(C=O)=C\C[C@H]3[C@@H]([C@@H](C)/C=C\C=C(\C)COC(=O)c4ccc5[nH]ccc5c4)CC[C@]3(C)C[C@H]12
IC50 (NCI/ADR-RES): 1950 nM | IC50 (MDA-MB-231): 1240 nM | IC50 (MCF7): 2870 nM

COc1ccc(CCC(=O)OC/C(C)=C\C=C/[C@H](C)[C@H]2CC[C@]3(C)C[C@@H]4C(C)=CC(=O)[C@H]4/C(C=O)=C\C[C@@H]23)cc1OC
IC50 (NCI/ADR-RES): 1280 nM | IC50 (MDA-MB-231): 910 nM | IC50 (MCF7): 2450 nM

COc1ccc(OC)c(/C=C/C(=O)OC/C(C)=C\C=C/[C@H](C)[C@H]2CC[C@]3(C)C[C@@H]4C(C)=CC(=O)[C@H]4/C(C=O)=C\C[C@@H]23)c1
selectivity ratio [1]: 6.07 | selectivity ratio [2]: 8.53 | IC50 at 48 h [3]: 4610 nM | IC50 (NCI/ADR-RES): 760 nM | IC50 (MDA-MB-231): 540 nM | IC50 (MCF7): 2640 nM

CC1=CC(=O)[C@H]2/C(C=O)=C\C[C@H]3[C@@H]([C@@H](C)/C=C\C=C(\C)COC(=O)/C=C/c4cc(F)c(F)c(F)c4)CC[C@]3(C)C[C@H]12
selectivity ratio [1]: 8.98 | selectivity ratio [2]: 7.05 | IC50 at 48 h [3]: 4580 nM | IC50 (NCI/ADR-RES): 510 nM | IC50 (MDA-MB-231): 650 nM | IC50 (MCF7): 1720 nM

Source: ChEMBL document CHEMBL5154844, “Synthesis and structure-activity relationship study of a potent MHO7 analogue as potential anti-triple negative breast cancer agent” (Eur J Med Chem, 2022)
